Calls of active or inactive are those of the source. No cut-off for these calls is given here.
What was measured:
[1] = target: T1, Non-receptor tyrosine-protein kinase TYK2 (Homo sapiens, UniProt P29597); conditions: BaF3
Description: Inhibition of TYK2 (unknown origin) transfected in mouse BAF3 cells assessed as cell growth inhibition incubated for 72 hrs by CCK8 assay

[2] = target: T2, Tyrosine-protein kinase JAK3 (Homo sapiens) (UniProt P52333); conditions: BaF3
T2 sequence (whole entry): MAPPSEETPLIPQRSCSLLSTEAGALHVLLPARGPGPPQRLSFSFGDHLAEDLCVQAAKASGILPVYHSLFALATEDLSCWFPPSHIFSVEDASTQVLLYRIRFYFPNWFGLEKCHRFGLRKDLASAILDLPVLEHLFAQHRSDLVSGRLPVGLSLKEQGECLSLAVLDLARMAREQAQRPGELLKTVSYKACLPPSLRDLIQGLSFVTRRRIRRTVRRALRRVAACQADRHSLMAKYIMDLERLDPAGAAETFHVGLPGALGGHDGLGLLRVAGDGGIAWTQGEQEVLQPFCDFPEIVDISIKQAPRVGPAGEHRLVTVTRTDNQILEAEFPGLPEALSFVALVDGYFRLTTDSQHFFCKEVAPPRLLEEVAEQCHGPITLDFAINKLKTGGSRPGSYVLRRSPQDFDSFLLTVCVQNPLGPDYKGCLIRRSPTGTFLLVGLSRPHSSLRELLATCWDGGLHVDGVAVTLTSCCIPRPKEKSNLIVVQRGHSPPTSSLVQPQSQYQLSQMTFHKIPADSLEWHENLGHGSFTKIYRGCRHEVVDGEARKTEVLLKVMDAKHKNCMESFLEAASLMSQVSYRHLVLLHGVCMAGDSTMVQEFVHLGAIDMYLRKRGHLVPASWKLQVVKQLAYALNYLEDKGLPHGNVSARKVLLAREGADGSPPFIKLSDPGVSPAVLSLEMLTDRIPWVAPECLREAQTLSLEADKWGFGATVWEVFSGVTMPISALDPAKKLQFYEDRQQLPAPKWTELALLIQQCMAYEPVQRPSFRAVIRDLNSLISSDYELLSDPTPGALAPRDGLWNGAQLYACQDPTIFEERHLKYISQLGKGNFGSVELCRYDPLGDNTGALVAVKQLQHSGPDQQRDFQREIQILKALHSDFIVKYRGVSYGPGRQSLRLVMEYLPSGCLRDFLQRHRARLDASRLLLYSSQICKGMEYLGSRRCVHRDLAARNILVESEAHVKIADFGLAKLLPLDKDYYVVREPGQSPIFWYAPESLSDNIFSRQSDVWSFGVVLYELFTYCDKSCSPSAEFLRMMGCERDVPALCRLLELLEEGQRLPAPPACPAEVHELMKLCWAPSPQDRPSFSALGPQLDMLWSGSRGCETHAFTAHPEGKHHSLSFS
Description: Inhibition of JAK3 (unknown origin) transfected in mouse BAF3 cells assessed as cell growth inhibition incubated for 72 hrs by CCK8 assay

[3] = target: T3, Tyrosine-protein kinase JAK1 (Homo sapiens, UniProt P23458); conditions: BaF3
Description: Inhibition of JAK1 (unknown origin) transfected in mouse BAF3 cells assessed as cell growth inhibition incubated for 72 hrs by CCK8 assay

[4] = target: T3, Tyrosine-protein kinase JAK1
Description: Inhibition of recombinant JAK1 (unknown origin) using GFP-STAT1 as substrate incubated for 1 hr followed by anti-pSTAT1 antibody addition and measured after 30 mins by Lanthascreen TR-FRET assay

[5] = target: T4, Tyrosine-protein kinase JAK2 (Homo sapiens, UniProt O60674)
Description: Inhibition of recombinant JAK2 (unknown origin) using GFP-STAT1 as substrate incubated for 1 hr followed by anti-pSTAT1 antibody addition and measured after 30 mins by Lanthascreen TR-FRET assay

[6] = target: T1, Non-receptor tyrosine-protein kinase TYK2
Description: Inhibition of recombinant TYK2 (unknown origin) using GFP-STAT1 as substrate incubated for 1 hr followed by anti-pSTAT1 antibody addition and measured after 30 mins by Lanthascreen TR-FRET assay

in vitro [7] = conditions: rat, microsomes
Description: Metabolic stability in rat liver microsomes assessed as parent compound remaining at 10 uM measured after 30 mins relative to control

CYP3A4 = CYP3A4 (Homo sapiens, UniProt P08684); assay: in vitro
in vitro [8] = conditions: human, microsomes
Description: Metabolic stability in human liver microsomes assessed as parent compound remaining at 10 uM measured after 30 mins relative to control

cells = format: functional, LX2; conditions: Homo sapiens, LX-2, 72 h; time hrs <=72
CYP2C19 = CYP2C19 (Homo sapiens, UniProt P33261); assay: in vitro
Description: Inhibition of CYP2C19 (unknown origin) at 10 uM relative to control

in vitro [9] = conditions: dog, MDCK
Description: Permeability of compound across apical to basolateral side in MDCK cells at 10 uM

[10] = target: Vascular endothelial growth factor receptor 1 (Homo sapiens, UniProt P17948)
in vitro [11] = conditions: dog, MDCK; remark: listed apart in the source
Description: Permeability of compound across basolateral to apical side in MDCK cells at 10 uM

CYP2D6 = CYP2D6 (Homo sapiens, UniProt P10635); assay: in vitro
Description: Inhibition of CYP2D6 (unknown origin) at 10 uM relative to control

CYP1A2 = target: T5, CYP1A2 (Homo sapiens, UniProt P05177); assay: in vitro
T5 sequence (P05177 whole entry): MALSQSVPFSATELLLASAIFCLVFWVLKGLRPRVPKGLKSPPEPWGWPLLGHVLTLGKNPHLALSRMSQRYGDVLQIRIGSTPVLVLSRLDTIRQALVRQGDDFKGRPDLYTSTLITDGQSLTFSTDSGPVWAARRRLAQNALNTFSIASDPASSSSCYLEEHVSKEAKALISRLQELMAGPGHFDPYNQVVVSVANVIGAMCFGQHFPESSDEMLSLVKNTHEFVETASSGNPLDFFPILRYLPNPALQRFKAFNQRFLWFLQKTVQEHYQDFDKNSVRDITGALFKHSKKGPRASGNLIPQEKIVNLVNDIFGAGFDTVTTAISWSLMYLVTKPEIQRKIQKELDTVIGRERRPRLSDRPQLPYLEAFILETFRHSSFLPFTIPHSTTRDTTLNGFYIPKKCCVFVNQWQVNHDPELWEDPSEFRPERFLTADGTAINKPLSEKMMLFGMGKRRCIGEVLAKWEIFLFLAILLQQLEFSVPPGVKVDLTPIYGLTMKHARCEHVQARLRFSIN
Description: Inhibition of CYP1A2 (unknown origin) at 10 uM relative to control

CYP2C9 = CYP2C9 (Homo sapiens, UniProt P11712); assay: in vitro
Description: Inhibition of CYP2C9 (unknown origin) at 10 uM relative to control

in vitro [12] = conditions: rat, plasma
Description: Stability in rat plasma assessed as compound remaining at 2 uM measured after 2 hrs relative to control

in vitro [13] = conditions: human, plasma
Description: Stability in human plasma assessed as compound remaining at 2 uM measured after 2 hrs relative to control

in vitro [14] = conditions: human, lx2
in vitro [15] = conditions: mouse, microsomes
Description: Metabolic stability in mouse liver microsomes assessed as parent compound remaining at 10 uM measured after 30 mins relative to control

LX2 [16] = conditions: Homo sapiens, dose 500.0 nM
LX2 [17] = conditions: Homo sapiens, dose 500.0 nM; remark: listed apart in the source
LX2 [18] = conditions: Homo sapiens, dose 500.0 nM; remark: listed apart in the source
LX2 [19] = conditions: Homo sapiens, dose lower […], dose upper 500.0 nM
[20] = target: T4, Tyrosine-protein kinase JAK2; conditions: BaF3
Description: Inhibition of JAK2 (unknown origin) transfected in mouse BAF3 cells assessed as cell growth inhibition incubated for 72 hrs by CCK8 assay

T1 sequence (P29597 whole entry): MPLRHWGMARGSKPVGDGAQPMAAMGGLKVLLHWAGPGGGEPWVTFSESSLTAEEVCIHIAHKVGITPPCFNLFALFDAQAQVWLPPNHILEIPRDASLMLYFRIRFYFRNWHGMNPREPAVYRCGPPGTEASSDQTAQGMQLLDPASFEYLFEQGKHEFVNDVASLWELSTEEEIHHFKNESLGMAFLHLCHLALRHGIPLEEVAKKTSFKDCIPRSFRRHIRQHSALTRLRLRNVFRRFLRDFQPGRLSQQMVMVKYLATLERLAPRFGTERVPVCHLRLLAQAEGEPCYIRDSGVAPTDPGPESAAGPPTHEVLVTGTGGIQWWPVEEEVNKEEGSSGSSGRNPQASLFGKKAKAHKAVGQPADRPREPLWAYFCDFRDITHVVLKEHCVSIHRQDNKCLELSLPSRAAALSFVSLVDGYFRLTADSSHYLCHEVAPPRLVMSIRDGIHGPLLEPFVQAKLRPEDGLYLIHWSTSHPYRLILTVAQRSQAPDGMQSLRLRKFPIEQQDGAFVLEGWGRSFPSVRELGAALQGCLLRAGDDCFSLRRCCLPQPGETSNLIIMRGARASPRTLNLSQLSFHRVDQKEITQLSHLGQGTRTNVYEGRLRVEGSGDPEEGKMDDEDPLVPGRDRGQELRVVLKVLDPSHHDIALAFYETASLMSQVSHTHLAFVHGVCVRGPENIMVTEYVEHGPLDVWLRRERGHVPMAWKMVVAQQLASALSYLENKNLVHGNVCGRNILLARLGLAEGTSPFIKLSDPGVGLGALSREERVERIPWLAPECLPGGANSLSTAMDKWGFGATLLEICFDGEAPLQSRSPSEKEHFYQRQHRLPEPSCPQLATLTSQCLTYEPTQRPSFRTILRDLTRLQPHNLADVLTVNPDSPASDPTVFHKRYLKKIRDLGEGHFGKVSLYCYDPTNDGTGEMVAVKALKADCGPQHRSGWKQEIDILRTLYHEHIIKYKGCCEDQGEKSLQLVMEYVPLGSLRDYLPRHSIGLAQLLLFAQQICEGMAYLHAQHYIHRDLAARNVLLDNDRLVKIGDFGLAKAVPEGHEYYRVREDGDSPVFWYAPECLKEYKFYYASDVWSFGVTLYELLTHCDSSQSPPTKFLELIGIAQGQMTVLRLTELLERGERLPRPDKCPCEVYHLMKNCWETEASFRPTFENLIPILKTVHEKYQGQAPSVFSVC
T3 sequence (P23458 whole entry): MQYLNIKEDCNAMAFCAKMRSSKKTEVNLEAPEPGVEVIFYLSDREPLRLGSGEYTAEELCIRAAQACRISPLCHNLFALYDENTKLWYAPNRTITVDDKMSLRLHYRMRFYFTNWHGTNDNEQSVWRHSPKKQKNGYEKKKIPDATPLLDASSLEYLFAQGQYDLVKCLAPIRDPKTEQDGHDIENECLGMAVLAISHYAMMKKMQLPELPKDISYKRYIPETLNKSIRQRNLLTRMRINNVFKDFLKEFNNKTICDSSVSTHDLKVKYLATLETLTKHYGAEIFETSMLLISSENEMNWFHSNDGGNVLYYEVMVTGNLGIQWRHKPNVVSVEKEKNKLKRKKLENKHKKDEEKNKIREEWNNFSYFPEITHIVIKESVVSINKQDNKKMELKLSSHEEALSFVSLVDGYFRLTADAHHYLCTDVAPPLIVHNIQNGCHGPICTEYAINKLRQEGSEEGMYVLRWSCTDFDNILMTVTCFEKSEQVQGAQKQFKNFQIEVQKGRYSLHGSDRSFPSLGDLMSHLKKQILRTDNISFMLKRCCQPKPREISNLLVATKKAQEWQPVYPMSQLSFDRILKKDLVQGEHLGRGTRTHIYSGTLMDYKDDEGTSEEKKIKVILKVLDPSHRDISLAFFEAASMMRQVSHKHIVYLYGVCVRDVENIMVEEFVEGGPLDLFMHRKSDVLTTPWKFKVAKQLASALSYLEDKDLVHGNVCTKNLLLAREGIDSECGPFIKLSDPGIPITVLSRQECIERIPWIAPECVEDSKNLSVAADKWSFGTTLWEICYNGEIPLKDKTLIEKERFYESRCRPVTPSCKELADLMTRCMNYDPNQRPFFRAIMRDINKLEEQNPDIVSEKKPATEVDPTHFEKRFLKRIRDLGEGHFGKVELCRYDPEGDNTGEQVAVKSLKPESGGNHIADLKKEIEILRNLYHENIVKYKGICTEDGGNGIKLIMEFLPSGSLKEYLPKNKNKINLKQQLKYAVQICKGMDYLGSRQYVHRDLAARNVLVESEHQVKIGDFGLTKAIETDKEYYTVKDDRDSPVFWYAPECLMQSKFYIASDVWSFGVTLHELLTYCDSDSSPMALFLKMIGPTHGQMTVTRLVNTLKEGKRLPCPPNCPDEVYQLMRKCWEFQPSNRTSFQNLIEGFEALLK
T4 sequence (O60674 whole entry): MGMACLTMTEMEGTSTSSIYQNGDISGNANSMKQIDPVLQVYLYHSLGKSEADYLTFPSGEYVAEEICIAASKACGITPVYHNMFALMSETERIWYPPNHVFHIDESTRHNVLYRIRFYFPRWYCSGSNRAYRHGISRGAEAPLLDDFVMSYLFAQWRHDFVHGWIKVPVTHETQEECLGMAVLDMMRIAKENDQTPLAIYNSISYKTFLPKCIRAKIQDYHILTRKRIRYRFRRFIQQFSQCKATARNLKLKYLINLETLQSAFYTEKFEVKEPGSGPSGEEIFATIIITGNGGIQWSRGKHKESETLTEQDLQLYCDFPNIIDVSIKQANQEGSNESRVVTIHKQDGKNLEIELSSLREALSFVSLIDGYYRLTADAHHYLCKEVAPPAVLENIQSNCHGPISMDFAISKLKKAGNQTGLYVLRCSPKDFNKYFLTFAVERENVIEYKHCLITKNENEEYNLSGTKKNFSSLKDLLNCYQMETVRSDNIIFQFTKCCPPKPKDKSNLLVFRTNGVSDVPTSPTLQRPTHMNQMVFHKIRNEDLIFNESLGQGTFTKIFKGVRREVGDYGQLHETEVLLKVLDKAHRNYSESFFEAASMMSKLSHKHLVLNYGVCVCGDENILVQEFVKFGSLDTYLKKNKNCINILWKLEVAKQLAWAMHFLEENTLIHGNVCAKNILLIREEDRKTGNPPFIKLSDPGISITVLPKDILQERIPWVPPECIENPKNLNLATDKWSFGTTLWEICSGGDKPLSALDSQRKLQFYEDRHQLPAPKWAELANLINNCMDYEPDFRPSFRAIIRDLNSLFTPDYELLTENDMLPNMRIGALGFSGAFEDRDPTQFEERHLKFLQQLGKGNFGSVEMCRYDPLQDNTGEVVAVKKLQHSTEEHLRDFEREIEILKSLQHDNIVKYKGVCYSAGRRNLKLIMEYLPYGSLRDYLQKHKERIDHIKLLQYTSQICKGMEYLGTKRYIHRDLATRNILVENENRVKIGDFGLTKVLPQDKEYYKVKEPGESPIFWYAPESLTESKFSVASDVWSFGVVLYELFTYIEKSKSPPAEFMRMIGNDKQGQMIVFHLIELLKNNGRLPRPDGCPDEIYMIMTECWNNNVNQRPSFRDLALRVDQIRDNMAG
CYP3A4, sequence (P08684 whole entry): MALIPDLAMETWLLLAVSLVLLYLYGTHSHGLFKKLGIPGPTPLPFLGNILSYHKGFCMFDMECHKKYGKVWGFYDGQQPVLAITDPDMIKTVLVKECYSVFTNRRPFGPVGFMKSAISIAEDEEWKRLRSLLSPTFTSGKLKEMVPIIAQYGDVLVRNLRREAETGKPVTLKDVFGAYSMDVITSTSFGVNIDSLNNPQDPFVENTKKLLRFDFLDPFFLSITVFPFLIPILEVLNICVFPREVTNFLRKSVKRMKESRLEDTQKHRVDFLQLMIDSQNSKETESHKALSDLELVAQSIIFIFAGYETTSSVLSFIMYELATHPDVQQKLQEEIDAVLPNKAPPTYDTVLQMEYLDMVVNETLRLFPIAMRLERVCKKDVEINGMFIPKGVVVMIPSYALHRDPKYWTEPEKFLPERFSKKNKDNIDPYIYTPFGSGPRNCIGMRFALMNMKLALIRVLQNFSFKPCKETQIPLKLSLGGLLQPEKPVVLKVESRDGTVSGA
CYP2D6, sequence (P10635 whole entry): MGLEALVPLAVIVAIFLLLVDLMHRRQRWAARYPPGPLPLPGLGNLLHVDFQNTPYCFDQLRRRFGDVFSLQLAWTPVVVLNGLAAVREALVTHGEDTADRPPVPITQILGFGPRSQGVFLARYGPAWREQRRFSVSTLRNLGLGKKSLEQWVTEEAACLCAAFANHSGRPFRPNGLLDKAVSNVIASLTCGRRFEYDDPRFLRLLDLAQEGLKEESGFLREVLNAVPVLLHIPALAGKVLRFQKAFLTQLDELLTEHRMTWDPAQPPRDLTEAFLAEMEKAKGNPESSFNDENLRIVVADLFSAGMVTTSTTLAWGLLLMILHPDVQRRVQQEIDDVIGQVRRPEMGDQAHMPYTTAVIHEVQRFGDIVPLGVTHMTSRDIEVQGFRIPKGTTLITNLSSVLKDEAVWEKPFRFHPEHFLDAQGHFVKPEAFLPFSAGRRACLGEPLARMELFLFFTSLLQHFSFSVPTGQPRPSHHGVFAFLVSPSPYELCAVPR
CYP2C9, sequence (P11712 whole entry): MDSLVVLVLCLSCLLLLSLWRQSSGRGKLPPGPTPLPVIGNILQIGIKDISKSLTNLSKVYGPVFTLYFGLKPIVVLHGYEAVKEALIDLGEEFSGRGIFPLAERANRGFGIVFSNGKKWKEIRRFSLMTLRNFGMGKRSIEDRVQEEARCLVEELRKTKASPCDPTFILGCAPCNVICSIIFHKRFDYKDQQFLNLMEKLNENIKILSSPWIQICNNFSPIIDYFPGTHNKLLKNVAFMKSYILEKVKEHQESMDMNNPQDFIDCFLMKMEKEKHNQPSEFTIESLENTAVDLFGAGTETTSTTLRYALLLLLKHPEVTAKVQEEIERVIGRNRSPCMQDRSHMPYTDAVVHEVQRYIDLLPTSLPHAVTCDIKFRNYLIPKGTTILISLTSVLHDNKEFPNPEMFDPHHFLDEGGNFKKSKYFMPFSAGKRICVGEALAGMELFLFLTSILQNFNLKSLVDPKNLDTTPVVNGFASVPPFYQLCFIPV

SMILES | GI50 [1] | GI50 [3] | IC50 [4] | IC50 [5] | IC50 [6] | further results
CNC(=O)c1cnc2[nH]ccc2c1N[C@@H]1CCN(Cc2cccc(Cl)c2)[C@@H](C)C1 (relative stereo) | 4750 nM | 232 nM |  |  |  | GI50 [2]: > 10000 nM
CNC(=O)c1cnc2[nH]ccc2c1NC1CCCN(Cc2cccc(OC)c2)CC1 (centres undefined) |  |  | 8.61 nM | 4.34 nM | 42.7 nM | 
O=C(NC1CCCC1)c1cnc2[nH]ccc2c1NC1CCN(Cc2ccccc2)CC1 |  |  | > 10000 nM |  |  | 
COc1cccc(CN2CC[C@@H](Nc3c(C(N)=O)cnc4[nH]ccc34)C[C@H]2C)c1 (relative stereo) |  |  | 17.2 nM | 57.6 nM | 157 nM | 
CNC(=O)c1cnc2[nH]ccc2c1N[C@@H]1CCN(Cc2ccc(Cl)cc2)[C@H](C)C1 (relative stereo) [listing 1 of 2 here] |  |  |  |  |  | remaining at 0.5 h, 10 µM (in vitro [7]): 11.6%; inhibition at 10 µM (CYP3A4): 92.9%; remaining at 0.5 h, 10 µM (in vitro [8]): 80.6%; GI50 (cells): 5790 nM; inhibition at 10 µM (CYP2C19): 75.7%; Papp A→B at 10 µM (in vitro [9]): 1.9 ×10⁻⁶ cm/s; IC50 [10]: 106 nM; Papp B→A at 10 µM (in vitro [11]): 3.7 ×10⁻⁶ cm/s; inhibition at 10 µM (CYP2D6): 77.1%; inhibition at 10 µM (CYP1A2): 74.8%; inhibition at 10 µM (CYP2C9): 70%; remaining at 2 h, 2 µM (in vitro [12]): 92.6%; remaining at 2 h, 2 µM (in vitro [13]): > 100%; GI50 at 48 h (in vitro [14]): > 10000 nM; remaining at 0.5 h, 10 µM (in vitro [15]): 28.2%
CNC(=O)c1cnc2[nH]ccc2c1NC1CCCN(Cc2ccccc2)CC1 (centres undefined) |  |  |  | 89.3 nM | 276 nM | 
COc1cccc(CN2CCC(Nc3c(C(N)=O)cnc4[nH]ccc34)CC2)c1 |  |  | 195 nM |  |  | 
COc1cccc(CN2CCC(Nc3c(C(=O)NC4CCCC4)cnc4[nH]ccc34)CC2)c1 |  |  | 3280 nM | > 10000 nM | > 10000 nM | 
CNC(=O)c1cnc2[nH]ccc2c1N[C@H]1CCN(Cc2ccc(Cl)cc2)[C@@H](C)C1 | 475 nM | 6.4 nM |  |  |  | GI50 [2]: 1140 nM
CNC(=O)c1cnc2[nH]ccc2c1NC1CCN(Cc2ccccc2)CC1 |  |  | 65 nM |  | 586 nM | 
NC(=O)c1cnc2[nH]ccc2c1NC1CCN(Cc2ccccc2)CC1 |  |  |  |  | 110 nM | 
CNC(=O)c1cnc2[nH]ccc2c1NC1CCN(Cc2ccccc2OC)CC1 |  |  | 406 nM | 7060 nM | 4180 nM | 
CNC(=O)c1cnc2[nH]ccc2c1NC1CCN(c2ccccc2)CC1 |  |  | 160 nM |  |  | 
CNC(=O)c1cnc2[nH]ccc2c1N[C@@H]1CCN(Cc2ccc(Cl)cc2)[C@H](C)C1 (relative stereo) [listing 2 of 2 here] | 655 nM | 10.5 nM |  |  |  | inhibition (LX2 [16]): Active; GI50 [2]: 1360 nM; inhibition (LX2 [17]): Active; inhibition (LX2 [18]): Active; inhibition (LX2 [19]): Active
O=C(Nc1nc2cccc(-c3ccc(CN4CCS(=O)(=O)CC4)cc3)n2n1)C1CC1 | 7190 nM | 798 nM |  |  |  | inhibition (LX2 [16]): Active; GI50 [2]: > 10000 nM; GI50 [20]: > 10000 nM
O=C(NC1CC1)c1cnc2[nH]ccc2c1NC1CCN(Cc2ccccc2)CC1 |  |  | 114 nM | 232 nM | 1350 nM | 
CNC(=O)c1cnc2[nH]ccc2c1NC1CCN(Cc2ccc(OC)c(OC)c2)CC1 |  |  | 8400 nM | > 10000 nM |  | 
CC(=O)Nc1cc(Oc2ccc3c(c2)CCN3C(=O)Nc2ccc(CN3CCN(C)CC3)c(C(F)(F)F)c2)ncn1 | 150 nM | 129 nM |  |  |  | GI50 [2]: 451 nM; GI50 [20]: 409 nM
COc1cccc(CN2CCC(Nc3c(C(=O)NC4CC4)cnc4[nH]ccc34)CC2)c1 |  |  | 2960 nM | > 10000 nM | > 10000 nM | 
CNC(=O)c1cnc2[nH]ccc2c1N[C@@H]1CCN(Cc2cccc(OC)c2)C[C@@H]1F (relative stereo) | 9650 nM | 214 nM |  |  |  | 
CNC(=O)c1cnc2[nH]ccc2c1NC1CCN(Cc2ccc(OC)cc2)CC1 |  |  | 202 nM | 3540 nM |  | 
CNC(=O)c1cnc2[nH]ccc2c1NC1CCN(Cc2cccc(C#N)c2)CC1 |  |  | 82 nM | 759 nM | 710 nM | 
CNC(=O)c1cnc2[nH]ccc2c1NC1CCN(Cc2cccc(OC)c2)CC1 |  |  | 18 nM | 469 nM | 1210 nM | 
CNC(=O)c1cnc2[nH]ccc2c1NC1CC2CCC(C1)N2Cc1ccc(Cl)cc1 (centres undefined) | 1710 nM | 1800 nM |  |  |  | GI50 [2]: 3900 nM; GI50 [20]: 3950 nM
CNC(=O)c1cnc2[nH]ccc2c1N[C@@H]1CCN(Cc2ccc(Cl)cc2)[C@H](C)C1 | > 10000 nM | 2950 nM |  |  |  | GI50 [2]: > 10000 nM
C[C@@H]1C[C@H](Nc2c(C(N)=O)cnc3[nH]ccc23)CCN1Cc1cccc(Cl)c1 (relative stereo) |  |  | 6.87 nM | 93.8 nM | 48.4 nM | 
CNC(=O)c1cnc2[nH]ccc2c1NC1CCCN(Cc2cccc(Cl)c2)CC1 (centres undefined) | > 10000 nM | 476 nM |  |  |  | GI50 [2]: > 10000 nM; GI50 [20]: 7690 nM

Reference: ChEMBL document CHEMBL4706658, “Discovery and Biological Evaluation of N-Methyl-pyrrolo[2,3-b]pyridine-5-carboxamide Derivatives as JAK1-Selective Inhibitors” (J Med Chem, 2021)
